According to US11504394B2, “Targeted ionophore-based metal delivery” (The Regents of the University of California, priority 2018, dated 2022):

System: liver tissue
Assay: Liver tissue histology, H&E staining
Assay type: in vivo
Experimental: FVB-luc+ mice were injected i.p. with vehicle (50 μL 1:1 DMSO:DPBS), Cu(gtsm), or Gal-Cu(gtsm) at a 0.75 mg Cu/kg mouse dose. After six hours, mice were euthanized with CO2 asphyxiation followed by cervical dislocation and liver tissue was extracted. Liver sections were fixed in a 10% formalin in PBS solution and sent to Histowiz Inc. (Brooklyn, N.Y.) for further processing and hematoxylin & eosin staining.

In the case of CNC1=N[N+]2=CC=[N+]3N=C(NCCOCCOCCOC4OC(CO)C(O)C(O)C4NC(C)=O)[S][Cu-2]23[S]1 (centres unmarked) [Gal-Cu(gtsm)], the “toxicity as indicated by liver histology and toxicity assays” value (0.75 mg Cu/kg i.p.) is reported as “non-toxic” and the “H&E liver histology” value (6 hours, 0.75 mg Cu/kg mouse) is reported as “largely resemble those of the vehicle-treated control mice”.
